Literature values in paper PMC6062831 (ACS Central Science, 2018).
Where two headings read alike, the source gives them in different places.

How the values were obtained:
human GUS ortholog = details: cited from earlier work
Escherichia coli GUS = details: cited from earlier work

Row | Structure (SMILES) | inhibition of human GUS ortholog (human GUS ortholog) | Ki (Escherichia coli GUS; read-out: Ki against E. coli GUS) [µM] | Ki (Escherichia coli GUS; read-out: Ki against Escherichia coli GUS) [µM]
1 | O=C(O)[C@@H]1[C@@H](O)[C@H](O)[C@@]2(O)CC[C@@H]1N2 [uronic-noeurostegine] | potent inhibitors | 0.06 | –
2 | O=C(O)[C@@H](O)[C@H]1OC(=O)[C@H](O)[C@H]1O [D-glucaro-1,4-lactone] | potent inhibitors | – | 19
